In patent US20260337156A1, “SOLUBILIZING COMPOUNDS” (Vivesto AB, priority 2022, published 2026):
“Also recorded” adds a separate entry of the source.

Columns and labels:
[1] = particle size and polydispersity index of drug micelles over time (ZetaSizer); assay type: physicochemical; conditions: for change of particle size and polydispersity index over time: 0-24 h
Protocol: Micellar size was measured using a ZetaSizer from Malvern Panalytical.
A stock solution of docetaxel in methanol was mixed with a stock solution of compound 1 in a round bottom flask. The mixture was evaporated to dryness in a rotary evaporator. Final drying was performed in a desiccator to remove residual solvent. Hydration of the dried film was performed by adding water for injection (1.0 mL) to a concentration of 1 mg/mL of docetaxel. The resulting solution was filtered through a 0.22 μm sterile filter and further diluted with 0.9% sodium chloride solution to 0.5 mg/mL of docetaxel. […]
A stock solution of cyclosporin in methanol was mixed with a stock solution of compound 1 in a round bottom flask. The mixture was evaporated to dryness in a rotary evaporator. Final drying was performed in a desiccator to remove residual solvent. Hydration of the dried film was performed by adding water for injection (1.0 mL) to a concentration of 1 mg/mL of cyclosporin. The resulting solution was filtered through a 0.22 μm sterile filter and further diluted with 0.9% sodium chloride solution to 0.5 mg/mL of cyclosporin. The final weight ratio of cyclosporin to micelle forming agent was 1:3.
A stock solution of docetaxel in methanol was mixed with a stock solution of compound 3 in a round bottom flask. The mixture was evaporated to dryness in a rotary evaporator. Final drying was performed in a desiccator to remove residual solvent. Hydration of the dried film was performed by adding water for injection (1.0 mL) to a concentration of 1 mg/mL of docetaxel. The resulting solution was filtered through a 0.22 μm sterile filter and further diluted with 0.9% sodium chloride solution to 0.5 mg/mL of Docetaxel. The final weight ratio of docetaxel to micelle forming agent was 1:3.
A stock solution of cyclosporin in methanol was mixed with a stock solution of compound 3 in a round bottom flask. The mixture was evaporated to dryness in a rotary evaporator. Final drying was performed in a desiccator to remove residual solvent. Hydration of the dried film was performed by adding water for injection (1.0 mL) to a concentration of 1 mg/mL of cyclosporin. The resulting solution was filtered through a 0.22 μm sterile filter and further diluted with 0.9% sodium chloride solution to 0.5 mg/mL of cyclosporin. The final weight ratio of cyclosporin to micelle forming agent was 1:3.
A stock solution of docetaxel in methanol was mixed with a stock solution of compound 4 in a round bottom flask. The mixture was evaporated to dryness in a rotary evaporator. Final drying was performed in a desiccator to remove residual solvent. Hydration of the dried film was performed by adding water for injection (1.0 mL) to a concentration of 1 mg/mL of docetaxel. The resulting solution was filtered through a 0.22 μm sterile filter and further diluted with 0.9% sodium chloride solution to 0.5 mg/mL of docetaxel. […]
A stock solution of docetaxel in methanol was mixed with a stock solution of compound 5 in a round bottom flask. The mixture was evaporated to dryness in a rotary evaporator. Final drying was performed in a desiccator to remove residual solvent. Hydration of the dried film was performed by adding water for injection (1.0 mL) to a concentration of 1 mg/mL of docetaxel. The resulting solution was filtered through a 0.22 μm sterile filter and further diluted with 0.9% sodium chloride solution to 0.5 mg/mL of docetaxel. The final weight ratio of docetaxel to micelle forming agent was 1:3.
A stock solution of cabazitaxel in methanol was mixed with a stock solution of compound 5 in a round bottom flask. The mixture was evaporated to dryness in a rotary evaporator. Final drying was performed in a desiccator to remove residual solvent. Hydration of the dried film was performed by adding water for injection (1.0 mL) to a concentration of 1 mg/mL of cabazitaxel. […]

[2] = appearance of the hydrated drug formulation; assay type: physicochemical
Protocol: 3.8 mg of compound 1 was dispensed into a 25 mL round bottom flask and dissolved in methanol (2 mL). 240 μL of a stock solution of docetaxel in methanol (5 mg/mL) was added.
The solution was evaporated to dryness in a rotary evaporator. Final drying was performed in a desiccator to remove residual solvent. Hydration of the dried film was performed by adding water for injection (1.2 mL). […] Drug loading capacity is defined as the ratio of amount API:(API+excipient).
11 mg of example 1 was dispensed into a 25 mL round bottom flask and dissolved in methanol (2 mL). 740 μL of a stock solution of docetaxel in methanol (4.96 mg/mL) was added. The solution was evaporated to dryness in a rotary evaporator. Final drying was performed in a desiccator to remove residual solvent.
4.5 mg of compound 1 was dispensed into a 25 mL round bottom flask and dissolved in methanol (2 mL). 1500 μL of a stock solution of cabazitaxel in methanol (1.00 mg/mL) was added. The solution was evaporated to dryness in a rotary evaporator. Final drying was performed in a desiccator to remove residual solvent.
4.5 mg of compound 1 was dispensed into a 25 mL round bottom flask and dissolved in methanol (2 mL). 1500 μL of a stock solution of cyclosporin in methanol (1.00 mg/mL) was added. The solution was evaporated to dryness in a rotary evaporator. Final drying was performed in a desiccator to remove residual solvent. […]
4.5 mg of compound 4 was dispensed into a round bottom flask and dissolved in methanol (3 mL). […] of a stock solution of docetaxel in methanol (4.96 mg/mL) was added. The solution was evaporated to dryness in a rotary evaporator. Final drying was performed in a desiccator (40 min) to remove residual solvent. Rehydration of the dried film was performed by adding 0.9% sodium chloride solution (1.5 mL).

[3] = cyclosporin:compound 1:3, cyclosporin 0.5 mg/mL
[4] = cyclosporin:compound 1:3, cyclosporin 0.5 mg/mL, time 0 h
[5] = cyclosporin:compound 1:3, cyclosporin 0.5 mg/mL, time 1 h
[6] = cyclosporin:compound 1:3, cyclosporin 0.5 mg/mL, time 2 h
[7] = cyclosporin:compound 1:3, cyclosporin 0.5 mg/mL, time 4 h
[8] = cyclosporin:compound 1:3, cyclosporin 0.5 mg/mL, time 6 h
[9] = cyclosporin:compound 1:3, cyclosporin 0.5 mg/mL, time 24 h
[10] = docetaxel:compound 1:5, docetaxel 0.5 mg/mL, time 0 h
[11] = docetaxel:compound 1:5, docetaxel 0.5 mg/mL, time 1 h
[12] = docetaxel:compound 1:5, docetaxel 0.5 mg/mL, time 2 h
[13] = docetaxel:compound 1:5, docetaxel 0.5 mg/mL, time 4 h
[14] = docetaxel:compound 1:5, docetaxel 0.5 mg/mL, time 6 h
[15] = docetaxel:compound 1:5, docetaxel 0.5 mg/mL, time 24 h
[16] = docetaxel:compound 1:3, docetaxel 0.5 mg/mL, time 0 h
[17] = docetaxel:compound 1:3, docetaxel 0.5 mg/mL, time 1 h
[18] = docetaxel:compound 1:3, docetaxel 0.5 mg/mL, time 2 h
[19] = docetaxel:compound 1:3, docetaxel 0.5 mg/mL, time 4 h
[20] = docetaxel:compound 1:3, docetaxel 0.5 mg/mL, time 6 h
[21] = docetaxel:compound 1:3, docetaxel 0.5 mg/mL, time 24 h

| SMILES | change of particle size and polydispersity index over time [1, 3] | Particle size [1, 4] [nm] | Polydispersity index [1, 4] | Particle size [1, 5] [nm] | Polydispersity index [1, 5] | Particle size [1, 6] [nm] | Polydispersity index [1, 6] | Particle size [1, 7] [nm] | Polydispersity index [1, 7] | Particle size [1, 8] [nm] | Polydispersity index [1, 8] | Particle size [1, 9] [nm] | Polydispersity index [1, 9] | appearance of formulation ([2]; formulation with docetaxel) | also measured |
| --- | --- | --- | --- | --- | --- | --- | --- | --- | --- | --- | --- | --- | --- | --- | --- |
| COc1cc(C)c(/C=C/C(C)=C/C=C/C(C)=C/C(=O)N(CCS(=O)(=O)[O-])C2CCCCC2)c(C)c1C.[Na+] [Compound 1] | Small increases in the particle size and variations of polydispersity index over time were noted; also recorded: The changes were within acceptable range | 30.71 | 0.10 | 44.70 | 0.22 | 41.29 | 0.10 | 44.53 | 0.10 | 49.61 | 0.19 | 51.37 | 0.14 | yellow transparent solution | change of particle size and polydispersity index over time ([1]; docetaxel:compound 1:5, docetaxel 0.5 mg/mL): Small increases in the particle size and polydispersity index over time were noted; also recorded: The changes were within acceptable range; Particle size [1, 10]: 30.77 nm; Polydispersity index [1, 10]: 0.10; Particle size [1, 11]: 36.60 nm; Polydispersity index [1, 11]: 0.16; Particle size [1, 12]: 39.44 nm; Polydispersity index [1, 12]: 0.16; Particle size [1, 13]: 41.38 nm; Polydispersity index [1, 13]: 0.18; Particle size [1, 14]: 41.19 nm; Polydispersity index [1, 14]: 0.20; Particle size [1, 15]: 43.98 nm; Polydispersity index [1, 15]: 0.21; appearance of formulation ([2]; formulation with cabazitaxel, 1 mg/mL in 0.9% NaCl): yellow transparent solution; appearance of formulation ([2]; formulation with cyclosporin, 1 mg/mL in 0.9% NaCl): yellow transparent solution |
| COc1cc(C)c(/C=C/C(C)=C/C=C/C(C)=C/C(=O)N(C)CCS(=O)(=O)[O-])c(C)c1C.[Na+] [Compound 3] | Small variations in the particle size and polydispersity index over time were noted; also recorded: The changes were within acceptable range | 8.46 | 0.31 | 6.77 | 0.21 | 6.60 | 0.19 | 6.58 | 0.18 | 6.68 | 0.21 | 7.39 | 0.32 | transparent yellow solution | change of particle size and polydispersity index over time ([1]; docetaxel:compound 1:3, docetaxel 0.5 mg/mL): Small variations in the particle size and polydispersity index over time were noted; also recorded: The changes were within acceptable range; Particle size [1, 16]: 6.19 nm; Polydispersity index [1, 16]: 0.11; Particle size [1, 17]: 7.19 nm; Polydispersity index [1, 17]: 0.11; Particle size [1, 18]: 10.06 nm; Polydispersity index [1, 18]: 0.26; Particle size [1, 19]: 10.18 nm; Polydispersity index [1, 19]: 0.27; Particle size [1, 20]: 10.25 nm; Polydispersity index [1, 20]: 0.27; Particle size [1, 21]: 6.20 nm; Polydispersity index [1, 21]: 0.14 |
